Reference: paper PMC10173194 (Journal of Advanced Research, 2022)

Target: T1, PKCε (Homo sapiens, UniProt Q02156)
T1 sequence (Q02156 1-737): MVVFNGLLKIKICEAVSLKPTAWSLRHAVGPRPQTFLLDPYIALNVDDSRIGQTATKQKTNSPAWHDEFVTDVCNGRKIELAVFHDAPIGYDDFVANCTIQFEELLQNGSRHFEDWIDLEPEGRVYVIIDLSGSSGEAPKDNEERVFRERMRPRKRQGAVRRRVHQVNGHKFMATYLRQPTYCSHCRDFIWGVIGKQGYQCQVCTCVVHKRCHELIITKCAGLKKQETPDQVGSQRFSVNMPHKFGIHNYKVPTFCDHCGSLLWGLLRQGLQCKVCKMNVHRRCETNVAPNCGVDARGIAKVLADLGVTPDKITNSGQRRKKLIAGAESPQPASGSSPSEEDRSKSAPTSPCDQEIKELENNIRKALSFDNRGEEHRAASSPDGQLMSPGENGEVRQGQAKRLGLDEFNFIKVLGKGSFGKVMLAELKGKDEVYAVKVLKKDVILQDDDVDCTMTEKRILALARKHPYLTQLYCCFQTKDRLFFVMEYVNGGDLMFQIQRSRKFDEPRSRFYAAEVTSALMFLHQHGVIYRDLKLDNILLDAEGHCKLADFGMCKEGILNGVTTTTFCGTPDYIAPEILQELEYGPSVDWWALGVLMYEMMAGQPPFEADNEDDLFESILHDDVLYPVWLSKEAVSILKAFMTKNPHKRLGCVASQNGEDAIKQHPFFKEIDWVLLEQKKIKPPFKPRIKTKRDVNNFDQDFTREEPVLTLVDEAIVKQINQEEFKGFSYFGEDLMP
Experiment: SPR
Format: binding

**Q.** For `COc1cccc2c1C(=O)c1c(O)c3c(c(O)c1C2=O)C[C@@](O)(C(=O)CO)C[C@@H]3O[C@H]1C[C@H](N)[C@H](O)[C@H](C)O1` [Dox, Doxorubicin], which Kd is on record?
**A.** 44.8 µM
